tested on: Plasmodium falciparum; experiment: Antimalarial activity against chloroquine-resistant, mefloquine-sensitive Plasmodium falciparum W2; type: functional

`CCC[C@@H](Cc1ccccc1)OC1O[C@@H]2O[C@@]3(C)CC[C@H]4[C@H](C)CC[C@@H]([C@H]1C)[C@@]24OO3` (some centres not stated) and `C[C@H]1[C@@H](O[C@@H](C)c2ccc(C(F)(F)F)cc2)O[C@@H]2O[C@@]3(C)CC[C@H]4[C@H](C)CC[C@@H]1[C@@]24OO3` are within 0.2 log units of each other in “Log RA” value: 0.31 for the first, 0.15 for the second.

First: C[C@@H]1CC[C@H]2CC(=O)O[C@@H]3O[C@@]4(C)CC[C@@H]1[C@@]23OO4
Second: CC[C@@]12CC[C@H]3[C@H](C)CC[C@H]4CC(=O)O[C@H](O1)[C@]43O2
The “Log RA” value of the first is higher: 0.79 for the first, -4 for the second.

Going from `C[C@@H]1CC[C@H]2CCO[C@@H]3O[C@@]4(CCCCc5ccccc5)CC[C@@H]1[C@@]23OO4` to `C[C@@H]1CC[C@H]2CCO[C@@H]3O[C@@]4(C)CC[C@@H]1[C@@]23OO4`, the “Log RA” value falls from 0.58 to 0.28.

Compared with `C[C@@H]1CC[C@H]2[C@@H](C)C(CCCO)O[C@@H]3O[C@@]4(C)CC[C@@H]1[C@]32OO4` (some centres not stated), `C[C@@H]1CC[C@H]2[C@@H](C)C(CC(F)F)O[C@@H]3O[C@@]4(C)CC[C@@H]1[C@]32OO4` (some centres not stated) is lower in “Log RA” value: 0.78 for the first, 0.11 for the second.

Going from `C[C@@H]1CCC[C@@]23CO[C@@](C)(CC[C@@H]12)OO3` to `C[C@@H]1CC[C@@H]2[C@]34OO[C@](C)(CC[C@@H]13)O[C@H]4OC(O)[C@@]21CO1` (some centres not stated), the “Log RA” value falls from -0.32 to -0.62.

Compared with `COC(=O)[C@@H](C)COC1O[C@@H]2O[C@@]3(C)CC[C@H]4[C@H](C)CC[C@@H]([C@H]1C)[C@@]24OO3` (some centres not stated), `CCOC1O[C@@H]2O[C@@]3(C)CC[C@H]4[C@H](C)CC[C@@H]([C@H]1CC)[C@@]24OO3` (some centres not stated) is lower in “Log RA” value: 1.79 for the first, 0.5 for the second.

`C[C@@H]1CC[C@H]2[C@@H](CCCc3ccccc3)C(=O)O[C@@H]3O[C@@]4(C)CC[C@@H]1[C@]32O4` and `CC(C)CC[C@H]1C(=O)O[C@@H]2O[C@@]3(C)CC[C@H]4[C@H](C)CC[C@@H]1[C@@]24O3` are the same in “Log RA” value: -4 for the first, -4 for the second.

Compared with `CO[C@H]1O[C@@]2(C)CC[C@H]3CCC[C@@H](CCOC(=O)c4ccc(C(=O)O)cc4)[C@]31OO2`, `CO[C@H]1O[C@@]2(C)CC[C@H]3CCC[C@@H](CCOS(=O)(=O)c4ccc(C)cc4)[C@]31OO2` is higher in “Log RA” value: -0.81 for the first, 0.2 for the second.

Compared with `CO[C@H]1O[C@@]2(C)CC[C@H]3CCC[C@@H](CCOC(=O)CNC(=O)OC(C)(C)C)[C@]31OO2`, `CO[C@H]1O[C@@]2(C)CC[C@H]3CCC[C@@H](CCOCc4c(C)noc4C)[C@]31OO2` is higher in “Log RA” value: -0.04 for the first, 0.58 for the second.

Compared with `C[C@@H]1CC[C@H]2CC(=O)O[C@@H]3O[C@H]4CC[C@@H]1[C@@]23OO4`, `C/C=C1\C(=O)O[C@@H]2O[C@@]3(C)CC[C@H]4[C@H](C)CC[C@@H]1[C@@]24OO3` is higher in “Log RA” value: -2.76 for the first, -0.36 for the second.

Going from `COC(=O)c1ccccc1S(=O)(=O)OCC[C@@H]1CCC[C@@H]2CC[C@@]3(C)OO[C@]21[C@@H](OC)O3` to `C[C@@H]1CC[C@H]2[C@@H](C)C(=O)N(Cc3ccccn3)[C@@H]3O[C@@]4(C)CC[C@@H]1[C@@]23OO4`, the “Log RA” value rises from -0.87 to 1.46.

Compared with `C[C@@H]1CC[C@H]2[C@@H](C)C(=O)N[C@@H]3O[C@@]4(C)CC[C@@H]1[C@]32O4`, `C[C@@H]1CC[C@H]2[C@@H](C)C(=O)N(C)[C@@H]3O[C@@]4(C)CC[C@@H]1[C@@]23OO4` is higher in “Log RA” value: -4 for the first, 0.43 for the second.

Compared with `C[C@@H]1CC[C@H]2[C@@H](C)C(=O)N(c3cccs3)[C@@H]3O[C@@]4(C)CC[C@@H]1[C@@]23OO4`, `CCOC1O[C@@H]2O[C@@]3(C)CC[C@H]4[C@H](C)CC[C@H]([C@@]24OO3)[C@@]1(C)O` (some centres not stated) is lower in “Log RA” value: 0.17 for the first, -1.13 for the second.

`C[C@@H]1CC[C@@H]2[C@]34OO[C@](C)(CC[C@@H]13)O[C@H]4OC(=O)[C@@]21CCC1C[Si](C)(C)C` (some centres not stated) was tested, and the “Log RA” value was -1.24.

From ChEMBL document CHEMBL1135798, “Structure-activity relationships of the antimalarial agent artemisinin. 6. The development of predictive in vitro potency models using CoMFA and HQSAR methodologies” (2002)
